Among the data in PMC6906440, “The vertebrate Aqp14 water channel is a neuropeptide-regulated polytransporter” (Communications Biology, 2019) are glycerol uptake and urea uptake values, retold here.

Assay in all cases: radiolabelled uptake in Xenopus oocytes
Common to all, as to type: cell-based

The target of assay [1] is T1, SsAqp14 (Salmo salar, UniProt A0A6B9KBC3).
T1 construct: full-length cDNA from kidney RNA in pT7Ts; Xenopus laevis oocytes (15 ng cRNA)
T1 sequence (A0A6B9KBC3 1-277): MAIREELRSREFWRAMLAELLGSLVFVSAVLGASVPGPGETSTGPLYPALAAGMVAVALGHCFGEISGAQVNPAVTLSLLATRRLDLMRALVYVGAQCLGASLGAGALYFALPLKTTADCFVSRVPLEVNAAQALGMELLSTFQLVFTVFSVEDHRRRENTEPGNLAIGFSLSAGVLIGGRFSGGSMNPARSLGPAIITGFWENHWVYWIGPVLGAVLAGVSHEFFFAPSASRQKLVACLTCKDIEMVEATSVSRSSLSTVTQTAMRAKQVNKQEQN
Conditions: 1 mM glycerol, isotonic, pH 7.5; labelled compound; channel transport.

Assay [2] has as its target T2, DrAqp14 (Danio rerio, UniProt A0A0G2L4D1).
T2 construct: full-length cDNA from brain RNA in pT7Ts; Xenopus laevis oocytes (15 ng cRNA)
T2 sequence (A0A0G2L4D1 1-277): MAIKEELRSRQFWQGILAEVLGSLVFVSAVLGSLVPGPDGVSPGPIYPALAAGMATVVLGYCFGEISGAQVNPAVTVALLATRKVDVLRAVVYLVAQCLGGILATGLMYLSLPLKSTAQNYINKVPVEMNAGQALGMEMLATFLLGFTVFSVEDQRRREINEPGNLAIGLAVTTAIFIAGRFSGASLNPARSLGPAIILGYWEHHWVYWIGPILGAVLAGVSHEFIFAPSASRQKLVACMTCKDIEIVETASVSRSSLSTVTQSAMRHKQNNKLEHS
The note with it: 1 mM glycerol, isotonic, pH 7.5; labelled compound; channel transport.

Assay [3] addresses T3, SaAqp14 (Sparus aurata, UniProt A0A6B9KHM1).
T3 construct: full-length cDNA from brain RNA in pT7Ts; Xenopus laevis oocytes (15 ng cRNA); residues 261-276 TQNAMRAKQANKQENN
T3 sequence (A0A6B9KHM1 1-276): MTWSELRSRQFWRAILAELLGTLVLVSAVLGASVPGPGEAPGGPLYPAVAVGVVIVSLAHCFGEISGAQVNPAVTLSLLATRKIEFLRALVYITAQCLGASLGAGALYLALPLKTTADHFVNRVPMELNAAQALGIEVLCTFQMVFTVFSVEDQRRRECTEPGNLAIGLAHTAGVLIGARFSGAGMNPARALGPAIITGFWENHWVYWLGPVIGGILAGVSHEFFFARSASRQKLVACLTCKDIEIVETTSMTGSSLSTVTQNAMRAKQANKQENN
Conditions: 1 mM glycerol, isotonic, pH 7.5; labelled compound; channel transport.

Assay [4] concerns the target T3, SaAqp14. The note with it: 1 mM urea, isotonic, pH 7.5; labelled compound; channel transport.
Assay [5] has as its target T2, DrAqp14. Conditions: 1 mM urea, isotonic, pH 7.5; labelled compound; channel transport.
Assay [6] concerns the target T1, SsAqp14. The note with it: 1 mM urea, isotonic, pH 7.5; labelled compound; channel transport.

In the case of `OCC(O)CO` [glycerol], the glycerol uptake entry at SsAqp14 [1] was “Oocytes injected with SaAqp14 and SsAqp14 are also slightly permeable to glycerol, urea”; at DrAqp14 [2], “as for SaAqp14 and SsAqp14 show a lesser permeability to glycerol and methylamine”; on SaAqp14 [3] it was “Oocytes injected with SaAqp14 and SsAqp14 are also slightly permeable to glycerol, urea”.
Consider `NC(N)=O` [urea], for which the urea uptake entry is “Oocytes injected with SaAqp14 and SsAqp14 are also slightly permeable to glycerol, urea” on SaAqp14 [4]; “oocytes expressing DrAqp14 are highly permeable to urea and hydrogen peroxide” at DrAqp14 [5]; “Oocytes injected with SaAqp14 and SsAqp14 are also slightly permeable to glycerol, urea” at SsAqp14 [6].
